Read-outs that look alike come from different tables or passages of the source.
Assays:
[1] = tested on: spontaneous dilated cardiomyopathy (J2N-k) hamster model; assay: Long-term (36 weeks) administration in J2N-k hamster model: cardiac function, survival rate; assay type: in vivo; conditions: 3.0 mg/kg
Protocol: ONO-1301 and (K) candesartan, which is ARB, were each individually orally administered to a δ-glycan-deficient spontaneous dilated cardiomyopathy (J2N-k) hamster model twice daily repeatedly for 36 weeks, after the onset of pathological condition (20 weeks old); and changes in cardiac function and survival rates in long-term administration were compared for evaluation. Specifically, echocardiographic measurement was performed after the onset of pathological condition (20 weeks old); the animals were grouped evenly based on the ejection fractions (EF values) and the body weights (Table 15), and each test substance was individually administered for 36 weeks.
The test was performed in the same manner as described in the section “1. Investigation of effects in spontaneous dilated cardiomyopathy (J2N-k) hamster model” above.
ONO-1301 was administered at 3 mg/kg twice per day. Candesartan was administered at 3 mg/kg once per day, and only vehicle was administered at the second administration. To the control group, vehicle (0.5% CMC-Na) was administered twice daily.

rats [2] = conditions: rats, cited from earlier work
[3] = tested on: spontaneously hypertensive rats (SHR); conditions: oral 0.1, 1 and 10 mg/kg for 2 weeks; cited from earlier work
dogs = conditions: 6-month toxicity study in dogs; cited from earlier work
[4] = tested on: rat coronary artery complete ischemia model; assay: Model of ischemia (MI) by rat coronary artery complete ligation (Tests 1 and 2): echocardiography, body weight
[5] = cited from earlier work
[6] = tested on: spontaneous dilated cardiomyopathy (J2N-k) hamster model; assay: Spontaneous dilated cardiomyopathy (J2N-k) hamster model, 8-week administration from 20 weeks of age (Tests 1-3): echocardiography, body weight
Protocol: The doses of pharmaceutical products were determined based on the no-observed-adverse-effect levels in a long-term toxicity study using rats. δ-Glycan-deficient spontaneous dilated cardiomyopathy (J2N-k) male hamsters (Japan SLC, Inc.) were delivered at 18 weeks of age. After a 2-week quarantine/acclimation, echocardiography was performed.
Each of the pharmaceutical products (A to K and O) was individually administered twice daily (at an interval of 8 hours or more) by oral gavage, and echocardiography was performed after 4 and 8 weeks (before dissection). Differences from the value before the start of administration (at the time of grouping) (amount of change: Δ) in each group were examined, and the cardiac function (EF value, FS %, etc.) was compared with that in the vehicle group (Group 1). Moreover, the heart was removed […] after the start of administration, and electron microscopy and RNA protein measurement were performed. Specimens for immunopathology were also collected and evaluated.
Each pharmaceutical product was individually suspended in 0.5% CMC-Na (sodium carboxymethylcellulose; Wako Pure Chemical Industries, Ltd.) before use, and administered. […] To Group 1 (control), 0.5% CNC-Na (vehicle) was administered.
Each pharmaceutical product was individually suspended in 0.5% CMC-Na (sodium carboxymethylcellulose; Wako Pure Chemical Industries, Ltd.) before use, and administered. Test substance G was suspended in distilled water before use, and administered.
Reason the doses were set (assuming that the adult body weight was 60 kg, the same amounts as the maximum clinical doses were set) • 1) The clinical dose of C (ozagrel; OZ) was 200 mg twice per day. The dose was thus set to 3.3 mg/kg twice per day. • 2) The clinical dose of D (cilostazol; CS) was 100 mg twice per day. The dose was thus set to 1.7 mg/kg twice per day. • 3) The clinical dose of E (pirfenidone; PF) was 600 mg three times per day, i.e., 1800 mg/day in total. The dose was thus set to 15 mg/kg twice per day. • 4) The clinical dose of G (nintedanib sulfonate; OB) was 150 mg twice per day. The dose was thus set to 2.5 mg/kg twice per day. • 5) The clinical dose of P (carvedilol; CV) was 10 mg twice per day. The dose was thus set to 0.17 mg/kg twice per day. • 6) Preparation 2 (PLGA⋅MS preparation of camostat; B⋅MS): the clinical dose of active substance camostat was 200 mg three times per day, i.e., 600 mg/day in total; thus, intermittent subcutaneous administration at a daily dose of 10 mg/kg once every 4 weeks, twice in total was set. The dose was 1/28 of the total oral dose amount.
The dose volume in oral administration was 5 mL/kg (the amount of liquid to be administered to each animal was calculated based on the most recent body weight), and administered by oral gavage using a polypropylene disposable syringe and a rat stomach tube.
The administration period of each pharmaceutical product was 8 weeks.

rats [7] = assay: Repeated oral administration toxicity study in rats (dose-setting basis); conditions: mg/kg twice per day, oral preparation
Excerpt: The dose-setting basis for the doses of the test substances used in pharmacological tests is as described below.

[8] = tested on: mouse model of pulmonary embolism; conditions: oral pre-administration, cited from earlier work
[9] = MI Test 1, NOAEL doses, 7 Day, mean ± S.D.
[10] = MI Test 1, NOAEL doses, 14 Day, mean ± S.D.
[11] = MI Test 1, NOAEL doses, 29 Day, mean ± S.D.
[12] = Test 1, p.o. b.i.d., NOAEL-based dose

In the case of `CCOc1nc2cccc(C(=O)OC(C)OC(=O)OC3CCCCC3)c2n1Cc1ccc(-c2ccccc2-c2nn[nH]n2)cc1` (stereo not shown) [candesartan, Candesartan cilexetil], the “EF compared with control group” value [1] is reported as “no longer significant in Week 30 and Week 36”, the “FS% compared with control group” value [1] is reported as “no longer significant in Week 36” and the Survival rate [1] is reported as “rapid decrease in the survival rate was observed from 29 weeks”. The No-observed-adverse-effect level (rats [2]; 6 months) was 10 mg/kg, the Blood pressure [3] was “reduced blood pressure” and the Plasma renin concentration [3] was “increased the plasma renin concentration in a dose-dependent manner”. For the same compound, the No-observed-adverse-effect level (dogs) was 20 mg/kg.
For `O=C1CCc2cc(OCCCCc3nnnn3C3CCCCC3)ccc2N1` [Compound D, Cilostazol], the “Action on left ventricular systolic function” value ([4]; MI Test 1, 28-day repeated oral administration b.i.d., NOAEL-based doses) was “suppression action on the deterioration of left ventricular systolic function”, the “Cardiac function test (% FS): actual measured EF value compared with control” value ([4]; MI Test 1, Day 7) was “significantly higher” and the “Cardiac function test (% FS): amount of change in the EF value compared with control” value ([4]; MI Test 1, Day 7) was “not significantly higher”. The “EF actual measured value compared with control” value ([4]; MI Test 1, Day 7) was “significantly higher”, the “EF amount of change compared with control” value ([4]; MI Test 1, Day 7) was “not significantly higher” and the “Cardiac function test (% FS): amount of change compared with control” value ([4]; MI Test 1, Day 29) was “significantly higher”. For the same compound, the “Body weight” value ([4]; MI Test 1, NOAEL doses, 1 Day (grouping), mean ± S.D.) was 232.4 ± 4.9 g, the % FS: value of change compared with the value on Day 1 [4, 9] was -1% and the EF: value of change compared with the value on Day 1 [4, 9] was -1%. It also gave a % FS: value of change compared with the value on Day 1 [4, 10] of -2%, an EF: value of change compared with the value on Day 1 [4, 10] of -3% and a % FS: value of change compared with the value on Day 1 [4, 11] of -5%. For the same compound, the EF: value of change compared with the value on Day 1 [4, 11] was -9%, the Diarrhea cases ([5]; human, in vivo) was 0.3% and the Dizziness ([5]; human, in vivo) was 0.5%. The “Headache (headache/heavy-headedness) cases” value ([5]; human, in vivo) was 3.4%, the “Nausea cases (cilostazol: nausea/vomiting)” value ([5]; human, in vivo) was 0.3% and the Palpitations cases ([5]; human, in vivo) was 0.7%. For the same compound, the “Cases with side effects (including laboratory test value abnormality)” value ([5]; share of cases evaluated for safety) was 6.3%, the No-observed-adverse-effect level (rats [2]; 13 weeks / 3 months) was 30 mg/kg and the “LVIDd 4 W” value ([6]; Test 1, p.o. b.i.d.) was 7.1 mm. For the same compound, the “LVIDd 8 W” value ([6]; Test 1, p.o. b.i.d.) was 7.5 mm, the “LVIDs 4 W” value ([6]; Test 1, p.o. b.i.d.) was 5.9 mm and the “LVIDs 8 W” value ([6]; Test 1, p.o. b.i.d.) was 6.3 mm. The “Body weight 1 W” value [6, 12] was 112.6 g, the “Body weight 2 W” value [6, 12] was 114.6 g and the “Body weight 3 W” value [6, 12] was 116.6 g. For the same compound, the “Body weight 4 W” value [6, 12] was 118.0 g, the “Body weight 5 W” value [6, 12] was 118.5 g and the “Cardiac function (EF, FS %) actual measured value and/or amount of change compared with control, 8 W value” ([6]; Test 3, clinical dose) was “significant cardiac function improvement effect”. For the same compound, the “Cardiac function (EF, FS %) actual measured value or change rate compared with control, 4 W value” ([6]; Test 3, clinical dose) was “significant cardiac function improvement effect”, the “Cardiac function improvement effect” value ([6]; Test 3, clinical dose, summary) was “cardiac function improvement effect was observed” and the “Minimal effective dose (screening 2)” value ([6]; mg/kg twice per day, oral preparation) was 1.7 mg/kg. For the same compound, the “Maximum no-observed-adverse-effect level (screening 1)” value (rats [7]) was 30 mg/kg, the “Dose significantly inhibiting pulmonary embolus death” value ([8]; ADP-induced model) was 30 mg/kg and the “Dose significantly inhibiting pulmonary embolus death” value ([8]; collagen-induced model) was 10 mg/kg.

From patent US20200360391A1, “Medicinal Composition for Treating Intractable Heart Disease” (Osaka University, priority 2016, published 2020)
